ChEMBL document CHEMBL1201862, “PubChem BioAssay data set” (2004)
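Cells were grown in 96-well plates and exposed to each compound for 48 hours at five concentrations; endpoints were interpolated linearly between bracketing concentrations, or set to the highest concentration if not reached. GI50 is the concentration that inhibits growth by half.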 Activity calls are given as the source filed them. Cut-off read from the data, not from the text of the source: active = GI50 up to about 1.1 µM and inactive = higher.

Legend:
Experiment in all cases: DTP human tumour cell line panel, 48 h
CCRF-CEM = test system: CCRF-CEM
COLO 205 = test system: COLO 205
HCT-116 = test system: HCT-116
HOP-62 = test system: HOP-62
HOP-92 = test system: HOP-92
KM12 = test system: KM12
NCI-H23 = test system: NCI-H23
NCI-H522 = test system: NCI-H522
OVCAR-3 = test system: OVCAR-3
SF-295 = test system: SF-295
SK-MEL-5 = test system: SK-MEL-5
SN12C = test system: SN12C
SNB-19 = test system: SNB-19
UACC-257 = test system: UACC-257
CAKI-1 = test system: CAKI-1
LOX IMVI = test system: LOX IMVI
RXF 393 = test system: RXF 393

Measured: GI50

[O-][S+](Cc1ccccc1)c1nc2ccccc2nc1-c1cccs1 (stereo not given)
inactive: CCRF-CEM 4 µM | COLO 205 20 µM | HCT-116 10.4 µM | HOP-62 19.2 µM | HOP-92 15.6 µM | KM12 16 µM | NCI-H23 13.8 µM | NCI-H522 1.21 µM | OVCAR-3 11.2 µM | SF-295 24.7 µM | SK-MEL-5 11.4 µM | SN12C 14 µM | SNB-19 18.2 µM | UACC-257 13.2 µM

CCCCC(C(=O)C(=O)Nc1ccccc1CC)C(=O)C(C)C (stereo not given)
inactive: CAKI-1 > 100 µM | CCRF-CEM > 100 µM | COLO 205 > 100 µM | HCT-116 > 100 µM | HOP-92 > 100 µM | KM12 > 100 µM | LOX IMVI > 100 µM | NCI-H23 > 100 µM | NCI-H522 > 100 µM | OVCAR-3 > 100 µM | SF-295 > 100 µM | SK-MEL-5 > 100 µM | SN12C > 100 µM | SNB-19 > 100 µM | UACC-257 > 100 µM

O=C(COc1ccc(/C=C/C(=O)c2ccc(Cl)cc2)cc1)Nc1c(Cl)cccc1Cl
inactive: CAKI-1 > 100 µM | CCRF-CEM 20.8 µM | COLO 205 > 100 µM | HCT-116 38.2 µM | HOP-62 > 100 µM | HOP-92 19.1 µM | KM12 67.5 µM | LOX IMVI 56.1 µM | NCI-H23 77.8 µM | NCI-H522 33.1 µM | OVCAR-3 > 100 µM | RXF 393 36 µM | SF-295 68.7 µM | SK-MEL-5 48.3 µM | SN12C > 100 µM | SNB-19 > 100 µM | UACC-257 79.8 µM

Cc1c(C(=O)/C=C/C=C/c2ccccc2)[n+]([O-])c2ccccc2[n+]1[O-]
inactive: CAKI-1 51.8 µM | CCRF-CEM 34 µM | COLO 205 35 µM | HOP-62 25.3 µM | HOP-92 18 µM | KM12 16.8 µM | LOX IMVI 31.1 µM | NCI-H23 17.5 µM | NCI-H522 15 µM | OVCAR-3 26.1 µM | SF-295 29.2 µM | SK-MEL-5 19.9 µM | SN12C 23.5 µM | SNB-19 35.5 µM | UACC-257 28.2 µM

O=C1C2=C(c3ccccc31)C(c1ccccc1Cl)N1C(=O)CCSC1=N2 (stereo not given)
inactive: CAKI-1 > 100 µM | CCRF-CEM > 100 µM | COLO 205 > 100 µM | HCT-116 > 100 µM | HOP-62 > 100 µM | HOP-92 30.1 µM | KM12 > 100 µM | NCI-H23 76 µM | NCI-H522 35.7 µM | OVCAR-3 > 100 µM | SF-295 > 100 µM | SK-MEL-5 > 100 µM | SN12C 89.9 µM | SNB-19 > 100 µM | UACC-257 > 100 µM

CC(C)(C)C1=CC(=C(P(=O)(O)O)P(=O)(O)O)C=C(C(C)(C)C)C1=O
inactive: CAKI-1 > 50 µM | CCRF-CEM > 50 µM | HCT-116 > 50 µM | HOP-62 > 50 µM | HOP-92 > 50 µM | KM12 > 50 µM | LOX IMVI > 50 µM | NCI-H23 > 50 µM | NCI-H522 > 50 µM | OVCAR-3 > 50 µM | SF-295 > 50 µM | SK-MEL-5 > 50 µM | SNB-19 > 50 µM | UACC-257 > 50 µM

CC1=C(C)C(=O)c2c(cc3c4ccccc4ccn23)C1=O
inactive: CCRF-CEM > 10 µM | COLO 205 > 100 µM | HCT-116 > 10 µM | HOP-62 > 100 µM | KM12 > 100 µM | LOX IMVI > 100 µM | NCI-H23 > 100 µM | NCI-H522 > 100 µM | OVCAR-3 > 100 µM | RXF 393 > 100 µM | SF-295 > 100 µM | SK-MEL-5 > 100 µM | SN12C > 100 µM | SNB-19 > 100 µM | UACC-257 > 100 µM

CC1(C)C(=O)C(O)=CC2C1=CCC1C2(C)C(=O)CC2(C)C(C(C)(O)C(=O)CC(O)C(C)(C)O)C(O)CC12C (stereo not given)
inactive: CAKI-1 2.12 µM | CCRF-CEM 3.01 µM | COLO 205 3.67 µM | HCT-116 3.97 µM | HOP-62 4.63 µM | HOP-92 2.38 µM | KM12 9.14 µM | LOX IMVI 2.5 µM | NCI-H23 10.9 µM | NCI-H522 2.71 µM | OVCAR-3 3.28 µM | RXF 393 2.56 µM | SF-295 4.67 µM | SK-MEL-5 2.84 µM | SN12C 4.98 µM | SNB-19 3.13 µM | UACC-257 3.52 µM

C=CCSc1ncnc2c1ncn2C1OC(CO)C(O)C1O (stereo not given)
inactive: CAKI-1 17.7 µM | CCRF-CEM > 100 µM | COLO 205 41.2 µM | HCT-116 20.5 µM | HOP-62 35.1 µM | HOP-92 9.2 µM | KM12 > 100 µM | LOX IMVI 4.72 µM | NCI-H23 18.2 µM | NCI-H522 11.9 µM | OVCAR-3 11.4 µM | SF-295 87.5 µM | SK-MEL-5 > 100 µM | SN12C 6.31 µM | SNB-19 > 100 µM | UACC-257 > 100 µM

CCN(CC)c1ccc(Cl)c2c1C(O)(C(C)C)C2(C)C (stereo not given)
inactive: CAKI-1 20 µM | CCRF-CEM 18.5 µM | COLO 205 15.2 µM | HCT-116 14.1 µM | HOP-62 23.7 µM | KM12 15.1 µM | LOX IMVI 17.3 µM | NCI-H23 15 µM | NCI-H522 14.5 µM | OVCAR-3 12.6 µM | RXF 393 16 µM | SF-295 18.9 µM | SK-MEL-5 15.4 µM | SN12C 16.7 µM | SNB-19 15.2 µM | UACC-257 14.5 µM

C=C(CN(CC(=C)C(=O)c1ccccc1)C(C)(C)C)C(=O)c1ccccc1
inactive: CAKI-1 4.28 µM | CCRF-CEM 1.5 µM | COLO 205 2.65 µM | HCT-116 13.8 µM | HOP-92 5.62 µM | KM12 13 µM | LOX IMVI 16.4 µM | NCI-H23 16.4 µM | NCI-H522 2.86 µM | OVCAR-3 13.8 µM | RXF 393 5.36 µM | SF-295 28.3 µM | SK-MEL-5 16.8 µM | SN12C 16.3 µM | SNB-19 23.3 µM | UACC-257 17 µM

CC/C(=C(\c1ccccc1)c1ccc(OCC[N+](C)(C)C)cc1)c1ccccc1 [TAMOXIFEN METHYL IODIDE]
inactive: CAKI-1 17.5 µM | CCRF-CEM 11.5 µM | COLO 205 5.31 µM | HCT-116 17.5 µM | HOP-62 32.4 µM | KM12 13.3 µM | LOX IMVI 11.3 µM | NCI-H522 4.99 µM | OVCAR-3 4.76 µM | RXF 393 17.1 µM | SF-295 16.9 µM | SK-MEL-5 4.59 µM | SN12C 9.16 µM | SNB-19 17.4 µM | UACC-257 6.75 µM

Cc1ccc2c(c1)-c1c3c(nn1C)-c1ccccc1SC3O2 (stereo not given)
inactive: CCRF-CEM 41 µM | COLO 205 75.5 µM | HCT-116 33.7 µM | HOP-62 > 100 µM | HOP-92 27 µM | KM12 38.6 µM | LOX IMVI > 100 µM | NCI-H23 > 100 µM | NCI-H522 78.7 µM | OVCAR-3 85.9 µM | RXF 393 > 100 µM | SF-295 83.8 µM | UACC-257 50.6 µM

N#CC1(C#N)C2C=CC(c3coc4cccc2c34)C1(C#N)C#N (stereo not given)
active: CCRF-CEM 1.11 µM
inactive: COLO 205 1.9 µM | HCT-116 2.49 µM | HOP-62 22.6 µM | HOP-92 18 µM | KM12 18.3 µM | LOX IMVI 15.2 µM | NCI-H23 18.7 µM | NCI-H522 1.66 µM | OVCAR-3 15.7 µM | RXF 393 3.91 µM | SF-295 19.9 µM | SK-MEL-5 15.4 µM | SN12C 11 µM | SNB-19 18.8 µM | UACC-257 10.8 µM

COc1ccc(C(C2=C(C)C(=O)c3ccccc3C2=O)c2ccc(C(C)C)cc(=O)c2O)cc1 (stereo not given)
inactive: CAKI-1 3.03 µM | CCRF-CEM 3.73 µM | COLO 205 5.31 µM | HCT-116 3.81 µM | HOP-62 2.59 µM | HOP-92 3.57 µM | KM12 4.3 µM | LOX IMVI 3.55 µM | NCI-H23 3.51 µM | NCI-H522 13.8 µM | OVCAR-3 2.68 µM | SF-295 4.7 µM | SK-MEL-5 5.96 µM | SN12C 2.87 µM

Cc1ccc(-c2cc(-c3ccco3)nc(N)n2)o1
inactive: CCRF-CEM > 100 µM | COLO 205 > 100 µM | HCT-116 > 100 µM | HOP-62 > 100 µM | KM12 > 100 µM | LOX IMVI > 100 µM | NCI-H23 > 100 µM | NCI-H522 > 100 µM | OVCAR-3 > 100 µM | RXF 393 > 100 µM | SF-295 > 100 µM | SK-MEL-5 > 100 µM | SN12C > 100 µM | SNB-19 > 100 µM

CCOC(=O)C/N=c1\nc(SC)sc2c(C(=O)OCC)nc(Sc3ccccc3)n12
inactive: CAKI-1 13.4 µM | CCRF-CEM 8.13 µM | COLO 205 > 100 µM | HCT-116 32.1 µM | HOP-62 52.1 µM | HOP-92 20.8 µM | KM12 > 100 µM | LOX IMVI 6.76 µM | NCI-H522 7.18 µM | OVCAR-3 30.3 µM | SK-MEL-5 > 100 µM | SN12C 91.4 µM | UACC-257 28.6 µM

COc1cc(/C=C/C(=O)c2sc(-n3nc(-c4ccccc4)cc3-c3ccccc3)nc2C)ccc1O
inactive: CAKI-1 6.64 µM | CCRF-CEM > 100 µM | COLO 205 > 100 µM | HOP-62 > 100 µM | HOP-92 2.47 µM | KM12 15.5 µM | LOX IMVI > 100 µM | NCI-H23 > 100 µM | NCI-H522 14.5 µM | OVCAR-3 > 100 µM | RXF 393 13 µM | SF-295 57 µM | SK-MEL-5 55.2 µM | SN12C > 100 µM | UACC-257 > 100 µM
